# Results: PubChem BioAssay AID2060489 (Molecular Pharmacology Branch, DTP, NCI, 2025)
# pIC50: −log10 of the molar value.
# Test system: 922993-354-T-J3-PDC complex spheroids, viability
# Test: Anticancer human tumor 922993-354-T-J3-PDC patient-derived endometrial carcinoma cell line growth inhibition [GQUAD]
# Conditions: for pIC50: curve of first compound; for viability, T/C: stronger effect = lower value
# In short: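 Viability of tumor cells grown as complex spheroids with endothelial and stromal cells, exposed to drug combinations. Top concentration at or near clinical Cmax (else 10 microM), diluted in half-log increments.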
# [1] = second compound 0.0316 µM, first compound 0.0316 µM
# [2] = second compound 0.0316 µM, first compound 0.1 µM
# [3] = second compound 0.0316 µM, first compound 0.316 µM
# [4] = second compound 0.0316 µM, first compound 1 µM
# [5] = second compound 0.0316 µM, first compound 3.16 µM
# [6] = second compound 0.0316 µM, first compound 10 µM
# [7] = second compound 0.1 µM, first compound 0.0316 µM
# [8] = second compound 0.1 µM, first compound 0.1 µM
# [9] = second compound 0.1 µM, first compound 0.316 µM
# [10] = second compound 0.1 µM, first compound 1 µM
# [11] = second compound 0.1 µM, first compound 3.16 µM
# [12] = second compound 0.1 µM, first compound 10 µM
# [13] = second compound 0.316 µM, first compound 0.0316 µM
# [14] = second compound 0.316 µM, first compound 0.1 µM
# [15] = second compound 0.316 µM, first compound 0.316 µM
# [16] = second compound 0.316 µM, first compound 1 µM
# [17] = second compound 0.316 µM, first compound 3.16 µM
# [18] = second compound 0.316 µM, first compound 10 µM
# [19] = second compound 1 µM, first compound 0.0316 µM
# [20] = second compound 1 µM, first compound 0.1 µM
# [21] = second compound 1 µM, first compound 0.316 µM
# [22] = second compound 1 µM, first compound 1 µM
# [23] = second compound 1 µM, first compound 3.16 µM
# [24] = second compound 1 µM, first compound 10 µM
# [25] = second compound 3.16 µM, first compound 0.0316 µM
# [26] = second compound 3.16 µM, first compound 0.1 µM
# [27] = second compound 3.16 µM, first compound 0.316 µM
# [28] = second compound 3.16 µM, first compound 1 µM
# [29] = second compound 3.16 µM, first compound 3.16 µM
# [30] = second compound 3.16 µM, first compound 10 µM
# [31] = second compound 10 µM, first compound 0.0316 µM
# [32] = second compound 10 µM, first compound 0.1 µM
# [33] = second compound 10 µM, first compound 0.316 µM
# [34] = second compound 10 µM, first compound 1 µM
# [35] = second compound 10 µM, first compound 3.16 µM
# [36] = second compound 10 µM, first compound 10 µM
# 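Further: spheroids exposed to compounds for seven days.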
# 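Wherever viability, T/C is given: 100% = DMSO vehicle control viability.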
structure (smiles),measurement,setting,value
CC(C)n1c(=O)n(C)c2cnc3cc(F)c(-c4ccc(OCCCN5CCCCC5)nc4)cc3c21 + Cc1[nH]c2ccc(F)cc2c1-c1nc2c3cccnc3c3ncccc3c2[nH]1,pIC50,second compound 0.0316 µM,< 5.00
same,pIC50,second compound 0.1 µM,< 5.00
same,pIC50,second compound 0.316 µM,< 5.00
same,pIC50,second compound 1 µM,< 5.00
same,pIC50,second compound 3.16 µM,< 5.00
same,pIC50,second compound 10 µM,< 5.00
same,"viability, T/C",[1],110%
same,"viability, T/C",[2],123%
same,"viability, T/C",[3],113%
same,"viability, T/C",[4],91.4%
same,"viability, T/C",[5],77.3%
same,"viability, T/C",[6],71.3%
same,"viability, T/C",[7],116%
same,"viability, T/C",[8],95.3%
same,"viability, T/C",[9],103%
same,"viability, T/C",[10],96.2%
same,"viability, T/C",[11],72.9%
same,"viability, T/C",[12],60.3%
same,"viability, T/C",[13],91.8%
same,"viability, T/C",[14],124%
same,"viability, T/C",[15],115%
same,"viability, T/C",[16],114%
same,"viability, T/C",[17],88.2%
same,"viability, T/C",[18],62.9%
same,"viability, T/C",[19],118%
same,"viability, T/C",[20],83.4%
same,"viability, T/C",[21],131%
same,"viability, T/C",[22],112%
same,"viability, T/C",[23],88.5%
same,"viability, T/C",[24],75.9%
same,"viability, T/C",[25],100%
same,"viability, T/C",[26],89.5%
same,"viability, T/C",[27],91.5%
same,"viability, T/C",[28],95.1%
same,"viability, T/C",[29],84.8%
same,"viability, T/C",[30],80.8%
same,"viability, T/C",[31],98.9%
same,"viability, T/C",[32],93.7%
same,"viability, T/C",[33],94%
same,"viability, T/C",[34],97.4%
same,"viability, T/C",[35],85.5%
same,"viability, T/C",[36],73.8%
O=C(c1cc(Cc2n[nH]c(=O)c3ccccc23)ccc1F)N1CCN(C(=O)C2CC2)CC1 + Cc1[nH]c2ccc(F)cc2c1-c1nc2c3cccnc3c3ncccc3c2[nH]1,pIC50,second compound 0.0316 µM,< 5.00
same,pIC50,second compound 0.1 µM,< 5.00
same,pIC50,second compound 0.316 µM,< 5.00
same,pIC50,second compound 1 µM,< 5.00
same,pIC50,second compound 3.16 µM,< 5.00
same,pIC50,second compound 10 µM,< 5.00
same,"viability, T/C",[1],107%
same,"viability, T/C",[2],113%
same,"viability, T/C",[3],98.3%
same,"viability, T/C",[4],102%
same,"viability, T/C",[5],89.5%
same,"viability, T/C",[6],81.1%
same,"viability, T/C",[7],108%
same,"viability, T/C",[8],119%
same,"viability, T/C",[9],88.3%
same,"viability, T/C",[10],99.5%
same,"viability, T/C",[11],124%
same,"viability, T/C",[12],95.5%
same,"viability, T/C",[13],93%
same,"viability, T/C",[14],90%
same,"viability, T/C",[15],72.6%
same,"viability, T/C",[16],115%
same,"viability, T/C",[17],102%
same,"viability, T/C",[18],118%
same,"viability, T/C",[19],91.5%
same,"viability, T/C",[20],100%
same,"viability, T/C",[21],108%
same,"viability, T/C",[22],92.3%
same,"viability, T/C",[23],92%
same,"viability, T/C",[24],68.3%
same,"viability, T/C",[25],81.1%
same,"viability, T/C",[26],98.3%
same,"viability, T/C",[27],89.7%
same,"viability, T/C",[28],88.1%
same,"viability, T/C",[29],97.9%
same,"viability, T/C",[30],88.8%
same,"viability, T/C",[31],106%
same,"viability, T/C",[32],110%
same,"viability, T/C",[33],88.2%
same,"viability, T/C",[34],80.2%
same,"viability, T/C",[35],101%
same,"viability, T/C",[36],83.7%
COc1cc(C2c3cc4c(cc3C(OC3OC5COC(C)OC5C(O)C3O)C3COC(=O)C23)OCO4)cc(OC)c1O (stereo unspecified) + Cc1[nH]c2ccc(F)cc2c1-c1nc2c3cccnc3c3ncccc3c2[nH]1,pIC50,second compound 0.0316 µM,< 5.00
same,pIC50,second compound 0.1 µM,< 5.00
same,pIC50,second compound 0.316 µM,< 5.00
same,pIC50,second compound 1 µM,< 5.00
same,pIC50,second compound 3.16 µM,< 5.00
same,pIC50,second compound 10 µM,< 5.00
same,"viability, T/C",[1],95.3%
same,"viability, T/C",[2],89.1%
same,"viability, T/C",[3],83.8%
same,"viability, T/C",[4],99.4%
same,"viability, T/C",[5],76.6%
same,"viability, T/C",[6],61.3%
same,"viability, T/C",[7],113%
same,"viability, T/C",[8],97.5%
same,"viability, T/C",[9],92.2%
same,"viability, T/C",[10],92.6%
same,"viability, T/C",[11],76.2%
same,"viability, T/C",[12],62.7%
same,"viability, T/C",[13],110%
same,"viability, T/C",[14],109%
same,"viability, T/C",[15],84.1%
same,"viability, T/C",[16],110%
same,"viability, T/C",[17],56.4%
same,"viability, T/C",[18],61.8%
same,"viability, T/C",[19],138%
same,"viability, T/C",[20],121%
same,"viability, T/C",[21],96.6%
same,"viability, T/C",[22],75.8%
same,"viability, T/C",[23],72.4%
same,"viability, T/C",[24],71.4%
same,"viability, T/C",[25],125%
same,"viability, T/C",[26],109%
same,"viability, T/C",[27],76.2%
same,"viability, T/C",[28],97.6%
same,"viability, T/C",[29],72.3%
same,"viability, T/C",[30],60.5%
same,"viability, T/C",[31],111%
same,"viability, T/C",[32],97.7%
same,"viability, T/C",[33],79.1%
same,"viability, T/C",[34],82.8%
same,"viability, T/C",[35],74.2%
same,"viability, T/C",[36],58.8%
